Test system: DU-145 multicell spheroids with HUVEC/MSC, viability
Assay: Anticancer human tumor DU-145 cell line growth inhibition [IpAb];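 also: spheroids exposed to agents for seven days before measurement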;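 as to viability, T/C: percent of DMSO vehicle control viability so 100% = untreated level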
Conditions: for IC50: curve of first compound; for viability, T/C: stronger effect = lower value
Summary of the method: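 Multi-cell spheroids of 60% tumour cells, 25% HUVEC and 15% MSC in ultra-low-attachment U-bottom wells, treated with agents combined with ipatasertib or abemaciclib. Half-log ranges top out near clinical Cmax, or 10 microM when Cmax is unknown.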

[1] = second compound 0.1 µM, first compound 0.0316 µM
[2] = second compound 0.1 µM, first compound 0.1 µM
[3] = second compound 0.1 µM, first compound 0.316 µM
[4] = second compound 0.1 µM, first compound 1 µM
[5] = second compound 0.1 µM, first compound 3.16 µM
[6] = second compound 0.1 µM, first compound 10 µM
[7] = second compound 0.316 µM, first compound 0.0316 µM
[8] = second compound 0.316 µM, first compound 0.1 µM
[9] = second compound 0.316 µM, first compound 0.316 µM
[10] = second compound 0.316 µM, first compound 1 µM
[11] = second compound 0.316 µM, first compound 3.16 µM
[12] = second compound 0.316 µM, first compound 10 µM
[13] = second compound 1 µM, first compound 0.0316 µM
[14] = second compound 1 µM, first compound 0.1 µM
[15] = second compound 1 µM, first compound 0.316 µM
[16] = second compound 1 µM, first compound 1 µM
[17] = second compound 1 µM, first compound 3.16 µM
[18] = second compound 1 µM, first compound 10 µM
[19] = second compound 3.16 µM, first compound 0.0316 µM
[20] = second compound 3.16 µM, first compound 0.1 µM
[21] = second compound 3.16 µM, first compound 0.316 µM
[22] = second compound 3.16 µM, first compound 1 µM
[23] = second compound 3.16 µM, first compound 3.16 µM
[24] = second compound 3.16 µM, first compound 10 µM
[25] = second compound 10 µM, first compound 0.0316 µM
[26] = second compound 10 µM, first compound 0.1 µM
[27] = second compound 10 µM, first compound 0.316 µM
[28] = second compound 10 µM, first compound 1 µM
[29] = second compound 10 µM, first compound 3.16 µM
[30] = second compound 10 µM, first compound 10 µM

| Structure (SMILES) | IC50 (second compound 0.1 µM) [nM] | IC50 (second compound 0.316 µM) [nM] | IC50 (second compound 1 µM) [nM] | IC50 (second compound 3.16 µM) [nM] | IC50 (second compound 10 µM) [nM] | viability, T/C [1] [%] | viability, T/C [2] [%] | viability, T/C [3] [%] | viability, T/C [4] [%] | viability, T/C [5] [%] | viability, T/C [6] [%] | viability, T/C [7] [%] | viability, T/C [8] [%] | viability, T/C [9] [%] | viability, T/C [10] [%] | viability, T/C [11] [%] | viability, T/C [12] [%] | viability, T/C [13] [%] | viability, T/C [14] [%] | viability, T/C [15] [%] | other results |
| --- | --- | --- | --- | --- | --- | --- | --- | --- | --- | --- | --- | --- | --- | --- | --- | --- | --- | --- | --- | --- | --- |
| Cn1nccc1Nc1nccc(-c2ccn(C(CO)c3ccc(Cl)c(F)c3)c(=O)c2)n1 (stereo not given) + CC(C)NCC(C(=O)N1CCN(c2ncnc3c2C(C)CC3O)CC1)c1ccc(Cl)cc1 | > 10000 | < 31.6 | < 31.6 | < 31.6 | < 31.6 | 65.6 | 57.1 | 60 | 76.8 | 99 | 66.2 | 42.6 | 36.2 | 35.8 | 45.7 | 66.3 | 60.3 | 27.4 | 24.6 | 26.2 | viability, T/C [16]: 30.7%; viability, T/C [17]: 42.3%; viability, T/C [18]: 47.6%; viability, T/C [19]: 18.7%; viability, T/C [20]: 16.5%; viability, T/C [21]: 19.3%; viability, T/C [22]: 20.7%; viability, T/C [23]: 27.6%; viability, T/C [24]: 36.8%; viability, T/C [25]: 13.4%; viability, T/C [26]: 11.6%; viability, T/C [27]: 11.7%; viability, T/C [28]: 14.3%; viability, T/C [29]: 21.7%; viability, T/C [30]: 24.6% |
| C=CC(=O)N1CCN(c2nc(=O)n(-c3c(C)ccnc3C(C)C)c3nc(-c4c(O)cccc4F)c(F)cc23)C(C)C1 (stereo not given) + CC(C)NCC(C(=O)N1CCN(c2ncnc3c2C(C)CC3O)CC1)c1ccc(Cl)cc1 | 8760 | 4170 | < 31.6 | < 31.6 | < 31.6 | 81.3 | 87.7 | 86.1 | 92 | 82.9 | 45.5 | 53.9 | 55 | 59.1 | 59.2 | 52.9 | 37.8 | 34 | 35.5 | 37.6 | viability, T/C [16]: 37.4%; viability, T/C [17]: 34.5%; viability, T/C [18]: 28.3%; viability, T/C [19]: 22.4%; viability, T/C [20]: 21.9%; viability, T/C [21]: 27.5%; viability, T/C [22]: 24.4%; viability, T/C [23]: 24.5%; viability, T/C [24]: 20.7%; viability, T/C [25]: 19.5%; viability, T/C [26]: 19.3%; viability, T/C [27]: 18.5%; viability, T/C [28]: 21.6%; viability, T/C [29]: 19.9%; viability, T/C [30]: 17.1% |
